Measured values: patent publication US6160008A, “Pharmaceutical compositions comprising S-alkylisothiouronium derivatives” (priority 1996, dated 2000)
“Also recorded” adds a separate entry of the source.

Experiments:
[1] = system: mice exposed to an oxygen pressure of 3 atm; assay: Survival under oxygen pressure of 3 atm, mice (Table 15); assay type: in vivo, F1 (CBAx57B1); conditions: for Number of survived animals: mice, 3 atm, 5 hours
Protocol: (§1) Animals were exposed to oxygen under increased pressure in a hyperbaric chamber <<Mana-2≤≤ for treatment of infants above 1 year, which was adjusted for the experiments on animals. The hyperbaric chamber design permitted to create excessive pressure up to 3 atm and to observe animal behavior from outside.
(§2) The experiments were performed on males of F1 (CBAx57B1) mice line and on males of Wistar rat line. Animals were placed in the hyperbaric chamber in plastic boxes and the atmospheric air was replaced by oxygen. The period of compression-decompression was 10 minutes. The exposure of the animals to an oxygen pressure of 3 atm during a period of 2 hours caused only some increase in their motion activity. Further staying of rats and mice in those conditions led to a decrease in the motion activity, to asphyxia with short periods of excitement and cramps. The death of some animals was registered after 2.5-3 hours, 50% after 4 hours, and 75% of mice and 100% of rats were dead after 5 hours.
(§3) When the influence of Difetur and Etyron was studied, the animals were exposed to an oxygen pressure of 3 atm during 5 hours if not otherwise specified. Preparations were injected 5-10 minutes before the session.

[2] = Biochemical indices of mice blood serum, acute experiment (Table 8); assay type: in vivo, F1 (C57B1×CBA); conditions: 500 mg/kg i.v.; for Total protein: in g/L (unit assumed)
Protocol: (§4) The effect of S-ethylisothiouronium diethylphosphate on body constituents was estimated in chronic and acute experiments. These experiments were conducted on F1 (C57B1×CBA) line mice and biochemical tests were made after a single administration of S-ethylisothiouronium diethylphosphate, injected intravenously at doses of 100 mg/kg (in the chronic experiment) and 500 mg/kg (in the acute experiment).
(§5) In the acute experiment, blood was taken 30, 60 and 75 minutes after the administration of the medicine. In the chronic experiment (which lasted 30 days), blood was daily examined 1 hour after the injection. Terms of the study were 1, 7, 14, and 21 days. The concentrations of total protein, total cholesterol, and glucose in mice blood serum were determined by conventional methods. Total protein was determined by a biuret method, total cholesterol--by like method, glucose--by the glucose-oxidase method.
(§6) Mouse blood was obtained after rapid decapitation. Tested material was sampled at the same time of the day and on the same season.
(§7) Blood for serum was sampled into centrifuge test tubes, put into the thermostat for 30-40 minutes; the clot was outlined by a needle, then it was put into a refrigerator for 1 hour+4° C. After cooling it was centrifuged at 3000 RPM during 10-15 minutes. Serum with no signs of hemolysis was sampled into a clean tube. All quantitative indices of the blood biochemical characteristics were obtained by spectrophotometric measurements. Calibration curves to determine total protein and cholesterol were constructed in advance.

[3] = system: arterial blood pressure; assay: Clinical testing under spinal epidural anesthesia; assay type: in vivo, patients; conditions: urological operations
Protocol: This experiment was conducted at the General Anesthesia Department of the First Republican Hospital of Moldova. The goal of this clinical study was to estimate the ability of Difetur to act as a hypertensive drug, compared to the known adrenergic drug--ephedrine. The experiments were performed on one hundred patients, underwent urological operations under spinal epidural anesthesia, their age being between 20 and 80. The following findings are presented in view of Difetur: […]

[4] = Biochemical indices of mice blood serum, chronic experiment (Table 9); assay type: in vivo, F1 (C57B1×CBA); conditions: for Body mass / Glucose / Total cholestrol / Total protein: 100 mg/kg i.v.; for Total protein: in g/L (unit assumed)
Protocol: as §4, §5, §6, §7

[5] = Lung coefficient under hyperbaric oxygen (3 atm); assay type: in vivo, mice and rats; conditions: for Lung coefficient (lung mass/body mass X100): hyperbaric oxygen
Protocol: as §1, §2, §3
After the session the dead animals were autopsied, their lungs were removed, and the index <<lung mass in gr./body mass in gr. X100>> (i.e. lung coefficient) was defined.

For `CCSC(=N)N` [S-ethylisothiouronium diethylphosphate], the “Number of survived animals” value ([1]; 5 mg/kg) was 25%, the “Number of survived animals” value ([1]; 10 mg/kg) was 65% and the “Number of survived animals” value ([1]; 20 mg/kg) was 88%. For the same compound, the “Oxygen protective activity compared with Etyron” value ([1]; mouse, in vivo) was “exceed Etyron in oxygen protective activity”, the Body mass ([2]; 30 min) was 24.8 ± 1.2 g and the Glucose ([2]; 30 min) was 13.4 ± 2.6 mmol/L. For the same compound, the Total cholestrol ([2]; 30 min) was 7.8 ± 1.2 mmol/L, the Total protein ([2]; 30 min) was 99.0 ± 4.3 and the “Serum biochemistry in words” value ([2]; 30 minutes) was “an increase in the concentration of total protein, cholesterol and glucose was observed, which subsequently had the tendency for normalization”. For the same compound, the Body mass ([2]; 60 min) was 26.1 ± 1.8 g, the Glucose ([2]; 60 min) was 9.0 ± 0.8 mmol/L and the Total cholestrol ([2]; 60 min) was 7.2 ± 1.6 mmol/L. It also gave a Total protein ([2]; 60 min) of 89.4 ± 4.6, a Body mass ([2]; 75 min) of 26.0 ± 0.5 g and a Glucose ([2]; 75 min) of 6.6 ± 1.0 mmol/L. The Total cholestrol ([2]; 75 min) was 5.4 ± 1.2 mmol/L, the Total protein ([2]; 75 min) was 87.6 ± 3.8 and the “Duration of hypertensive action” value [3] was 40 to 60 min. The “Time until blood pressure attains the initial value” [3] was at most 90 min, the Clinical safety findings ([3]; listed as Difetur) was “No cases of secondary hypertension were observed; also recorded: No complications of allergic type of the blood circulation or respiration were observed” and the “Effect on patient's blood pressure in words” value ([3]; listed as Difetur) was “prevented the decrease in the patient's blood pressure; also recorded: blood pressure of the patients remained stable; also recorded: rapid and prolonged effect on arterial blood pressure”. The Body mass ([4]; 1st day) was 23.8 ± 0.1 g, the Glucose ([4]; 1st day) was 7.1 ± 1.4 mmol/L and the Total cholestrol ([4]; 1st day) was 4.7 ± 0.9 mmol/L. The Total protein ([4]; 1st day) was 75.6 ± 4.9, the Body mass ([4]; 7th day) was 24.0 ± 0.2 g and the Glucose ([4]; 7th day) was 8.2 ± 1.8 mmol/L. For the same compound, the Total cholestrol ([4]; 7th day) was 5.0 ± 0.6 mmol/L, the Total protein ([4]; 7th day) was 63.5 ± 4.4 and the Body mass ([4]; 14th day) was 28.1 ± 0.3 g. For the same compound, the Glucose ([4]; 14th day) was 8.8 ± 1.7 mmol/L, the Total cholestrol ([4]; 14th day) was 3.0 ± 0.36 mmol/L and the Total protein ([4]; 14th day) was 72.4 ± 3.3. The Body mass ([4]; 21st day) was 26.1 ± 0.5 g, the Glucose ([4]; 21st day) was 9.9 ± 1.8 mmol/L and the Total cholestrol ([4]; 21st day) was 4.9 ± 0.42 mmol/L. For the same compound, the Total protein ([4]; 21st day) was 74.9 ± 2.4, the “Serum biochemistry in words” value ([4]; 100 mg/kg, chronic experiment) was “fluctuations of the studied parameters do not exceed the limits of physiological fluctuations” and the “Lung coefficient (lung mass/body mass X100)” value ([5]; 5 mg/kg) was 0.95±0.09. The “Lung coefficient (lung mass/body mass X100)” value ([5]; 10 mg/kg) was 0.97±0.09, the “Lung coefficient (lung mass/body mass X100)” value ([5]; 20 mg/kg) was 0.88±0.08 and the “Lung protection in words” value ([5]; in vivo) was “considerable protective efficiency regarding the lung tissue”.
